Like-named read-outs stand apart in the source and are kept apart here.
What was measured:
[1] = Pharmacokinetic study of liposomal sumatriptan in rats after single subcutaneous administration
Method: Jugular vein cannulated (JVC) female Sprague-Dawley rats (7-9 weeks) were used for a pharmacokinetic (PK) study. The rats were housed in a holding room which operates on a 12-hour light/12-hour dark circadian cycle with free access (ad libitum) to water and food.
Blood samples were collected at 2, 4, 8, 24, 48 and 72 hours post-injection. Plasma samples were obtained by centrifugation and then dimethyl sulfoxide was added to the plasma samples at a final concentration of 5% (v/v) for storing the samples at −80° C. until analysis. One-hundred microliters of each sample were subject to separation of sumatriptan by a Strata C18-E tube to obtain the sumatriptan fraction and sumatriptan concentration was determined employing LC-MS/MS methods.
The unformulated sumatriptan injection was prepared by dissolving the sumatriptan tartrate in ultrapure water at 2 mg/mL. The in vivo PK profiles of the rats (n=3) administrated with unformulated sumatriptan following subcutaneous injection at the dosage of 3 mg/kg of sumatriptan tartrate were compared to the PK profiles of the rats administered 10 mg/kg of sumatriptan from the liposomal sumatriptan formulation. Blood samples were collected at 15 mins, 0.5, 1, 2, 4, 6 and 8 hours post-injection. Plasma samples were obtained by centrifugation and were kept frozen at −80° C. until analysis.
FIG. 1 depicts the mean sumatriptan concentration versus time curve over 72 hours post-injection. Table 2 provides a summary of the PK parameters which were obtained using a noncompartmental model within the PKSolver program.

[2] = female rats, cited from earlier work; for Cmax/dose: normalization using sumatriptan succinate dosage
[3] = tested on: patients; conditions: within 24 hours or 48 hours of initial symptom resolution; cited from earlier work
[4] = human, cited from earlier work
[5] = unformulated 3 mg/kg, liposomal 10 mg/kg

Row | Compound | AUC0-t/dose ([1]; dose-normalized) | Cmax/dose ([1]; dose-normalized) | AUC0-inf [1, 5] | AUC0-t [1, 5] | Cmax [1, 5] | t1/2 [1, 5] | t1/2 ([2]; intranasal administration) | Cmax/dose ([2]; intranasal) | t1/2 ([2]; intravenous administration) | Cmax/dose ([2]; intravenous) | migraine recurrence rate [3] | half-life (t1/2) ([4]; 6 mg subcutaneous injection) | half-life (t1/2) ([4]; 20 mg intranasal administration) | half-life (t1/2) ([4]; 100 mg oral tablet) | half-life (t1/2) ([4]; irrespective of route of administration) | time to reach maximum plasma concentration ([4]; subcutaneous injection)
1 | sumatriptan tartrate [Unformulated Sumatriptan] | 226.9 | 138 | 687.4 ng·h/mL | 680.6 ng·h/mL | 414 ng/mL | 1.1 h | – | – | – | – | – | – | – | – | – | –
2 | CNS(=O)(=O)Cc1ccc2[nH]cc(CCN(C)C)c2c1 [sumatriptan] | – | – | – | – | – | – | 3.6 h | 25 ng/mL | 1.1 h | 508.6 ng/mL | about 40% | 2 h | 1.8 h | 2 h | approximately 2 hours | approximately 10 minutes
